Assay results taken from patent US20080038276A1, “INHIBITORS OF PLASMA KALLIKREIN” (Activesite Pharmaceuticals, Inc., priority 2006, published 2008).
Read-outs that look alike come from different tables or passages of the source.

T1: FXIIa (Homo sapiens, UniProt P00748)
T1 sequence (P00748 373-615 limits assumed): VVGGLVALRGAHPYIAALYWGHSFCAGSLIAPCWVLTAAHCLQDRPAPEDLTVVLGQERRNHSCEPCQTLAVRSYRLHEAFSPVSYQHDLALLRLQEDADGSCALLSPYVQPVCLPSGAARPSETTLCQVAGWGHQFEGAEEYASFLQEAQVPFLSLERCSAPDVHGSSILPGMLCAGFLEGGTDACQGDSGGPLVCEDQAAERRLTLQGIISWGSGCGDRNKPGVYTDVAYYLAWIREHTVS

B1: C1-INH: a physiological inhibitor (protein, UniProt P05155 23-500, looked up)
Plasma protease C1 inhibitor: NPNATSSSSQDPESLQDRGEGKVATTVISKMLFVEPILEVSSLPTTNSTTNSATKITANTTDEPTTQPTTEPTTQPTIQPTQPTTQLPTDSPTQPTTGSFCPGPVTLCSDLESHSTEAVLGDALVDFSLKLYHAFSAMKKVETNMAFSPFSIASLLTQVLLGAGENTKTNLESILSYPKDFTCVHQALKGFTTKGVTSVSQIFHSPDLAIRDTFVNASRTLYSSSPRVLSNNSDANLELINTWVAKNTNNKISRLLDSLPSDTRLVLLNAIYLSAKWKTTFDPKKTRMEPFHFKNSVIKVPMMNSKKYPVAHFIDQTLKAKVGQLQLSHNLSLVILVPQNLKHRLEDMEQALSPSVFKAIMEKLEMSKFQPTLLTLPRIKVTTSQDMLSIMEKLEFFDFSYDLNLCGLTEDPDLQVSAMQHQTVLELTETGVEAAAASAISVARTLLVFEVQQPFLFVLWDQQHKFPVFMGRVYDPRA

What was measured:
[1] = system: plasmin-activated coagulation in plasma; test: Plasmin-activated coagulation of plasma (plasmin + 6.25% Actin FS), time to coagulation; design: species or system human; conditions: for prolongs time to coagulation: normal plasma, 200 nM plasmin
Method: In the clotting paradigm utilized in Example 3, plasma is mixed 1:1 with commercially formulated Actin FS. Thus, 50% (v/v) Actin FS is the maximum amount of activator that can be added while maintaining the amount of plasma constant at 50% of the incubation mixture. Since the clotting time in normal plasma is dependent on the amount of Actin FS present in the incubation mixture, these conditions would by definition lead to the shortest time to coagulation mediated by the intrinsic pathway in this paradigm. Lowering the amount of contact activator leads to a decrease in the amount of PK activated, thus reducing the amount of thrombin generated and slowing the time to coagulation (data not shown). Therefore, in order to determine whether addition of exogenous plasmin (mimicking a fibrinolytic setting) can shorten time to coagulation, the amount of Actin FS reagent added to the plasma (kept constant at 50% of the final incubation mixture) was lowered so as to attain 6.25% (final v/v).
This provides direct evidence that plasmin can have a thrombogenic effect when added to plasma in the presence of a small amount of contact activator.
The role for PK was established by evaluating deficiencies in PK, as well as by using two specific inhibitors of the enzymes. In order to determine whether blocking PK via a specific monoclonal antibody (MAb) would also be effective in inhibiting coagulation in either of the two paradigms described here, and thus provide additional validation for the invention, MAb 13G11, which has been previously characterized as being specific for PK (Veloso et al, (1987) Blood, 70, 1053-1062), was tested in each of the coagulation paradigms described in Examples 2 and 3. MAb 13G11 (obtained from GeneTex, San Antonio, Tex.) was added at a final concentration of 0.036 mg/ml in the 50% plasma—50% activator mix in each paradigm. This calculates to an approximately 2-fold molar excess over the amount of PK that would be present in the plasma—activator mixture, based on the literature reference of Veloso et al, (1987), Blood, 70, 1053-1062. Control samples were treated with 0.036 mg/ml of an isotype-matched control IgG1 (also obtained from GeneTex). When plasma was activated using 50% Actin FS (FIG. 5), MAb 13G11 prolonged time to coagulation by 100% (45% of the maximal effect obtained with PK-deficient plasma), and, when plasma was activated using 200 nM plasmin+6.25% Actin FS (FIG. 6), prolonged time to coagulation by 32% (40% of the maximal effect obtained with PK-deficient plasma).

FXIIa = biological target: T1, FXIIa; test: Specificity profile: amidolytic activity with synthetic substrate; assay type: biochemical; conditions: highest concentration tested 10 μM
Method: (§1) The highest concentration of either compound tested was 10 μM.

FXa = FXa (Homo sapiens, UniProt P00742); test: as above; assay type: biochemical; conditions: highest concentration tested 10 μM
Method: as §1

Plasmin = biological target: T2, Plasmin (Homo sapiens, UniProt P00747); test: as above; assay type: biochemical; conditions: highest concentration tested 10 μM
T2 construct: agents that lead to the generation of active plasmin from plasminogen
Method: as §1

Thrombin = Thrombin (Homo sapiens, UniProt P00734); test: as above; assay type: biochemical; conditions: highest concentration tested 10 μM
Method: as §1

FXIa = FXIa (Homo sapiens, UniProt P03951); test: as above; assay type: biochemical; conditions: highest concentration tested 10 μM
Method: as §1

[2] = biological target: T3, Human plasma kallikrein (PK) (Homo sapiens, UniProt P03952); test: Inhibition of human plasma kallikrein amidolytic activity (H-D-Pro-Phe-Arg-pNA cleavage, A405); assay type: biochemical
T3 construct: purchased Haemtech Technologies (Essex Junction, Vt.)
Method: Human plasma kallikrein (PK) was obtained from Haemtech Technologies (Essex Junction, Vt.). The enzymatic activity of PK was assayed using the synthetic peptide substrate H-D-Pro-Phe-Arg-pNA (Bachem, Inc., Switzerland) with the cleavage of the substrate by the enzyme resulting in an increase in A405, measured using a Molecular Devices Vmax Kinetic Microplate Reader. The uninhibited (control) activity of PK was determined by adding 190 μl of PK solution (1 nM in 0.05 M HEPES, pH 7.5, 0.01% Triton X-100) to 10 μl of H-D-Pro-Phe-Arg-pNA (2 mM in DMSO) in individual microtiter plate wells, mixed immediately by shaking, and the rate of increase in A405 determined over 120-180 sec. In parallel, compounds of the present invention were mixed in separate wells with the synthetic substrate to attain final concentrations of between 0.01-10 μM in the final 200 μl reaction mixture, and the reaction initiated by the addition of 190 μl of the PK solution.
as §1

patients with HAE = conditions: in vivo; cited from earlier work
rat models of arthritis = conditions: in vivo; cited from earlier work
mouse model of MCAO = conditions: in vivo; cited from earlier work
sepsis patients = conditions: in vivo; cited from earlier work
[3] = system: LPS or bacterial induced sepsis in animals; conditions: in vivo; cited from earlier work
[4] = apparent inhibition constant, 1 nM PK, pH 7.5, read-out: PK Kiapp
[5] = purified human PK, highest concentration tested 10 μM, read-out: Ki PK

T3 sequence (P03952 391-638 limits assumed): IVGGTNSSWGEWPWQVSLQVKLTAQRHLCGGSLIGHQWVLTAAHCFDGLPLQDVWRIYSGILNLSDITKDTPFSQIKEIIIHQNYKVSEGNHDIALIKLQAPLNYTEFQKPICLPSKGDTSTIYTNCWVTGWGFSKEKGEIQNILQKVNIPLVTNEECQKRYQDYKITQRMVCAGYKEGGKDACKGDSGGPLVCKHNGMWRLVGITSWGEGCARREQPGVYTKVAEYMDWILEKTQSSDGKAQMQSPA
T3 sequence (P03952 20-390 partner limits assumed): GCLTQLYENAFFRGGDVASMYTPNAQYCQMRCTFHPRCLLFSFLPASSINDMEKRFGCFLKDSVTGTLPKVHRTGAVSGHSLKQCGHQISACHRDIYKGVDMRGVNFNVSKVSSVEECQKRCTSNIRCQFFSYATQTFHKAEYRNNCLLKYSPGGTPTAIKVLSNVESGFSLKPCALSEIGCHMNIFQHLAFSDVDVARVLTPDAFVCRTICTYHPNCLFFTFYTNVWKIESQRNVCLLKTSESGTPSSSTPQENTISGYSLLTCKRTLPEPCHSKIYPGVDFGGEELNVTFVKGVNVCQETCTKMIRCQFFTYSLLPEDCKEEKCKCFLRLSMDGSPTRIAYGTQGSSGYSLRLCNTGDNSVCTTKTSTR
Sequence of FXIa (P03951 388-625 limits assumed): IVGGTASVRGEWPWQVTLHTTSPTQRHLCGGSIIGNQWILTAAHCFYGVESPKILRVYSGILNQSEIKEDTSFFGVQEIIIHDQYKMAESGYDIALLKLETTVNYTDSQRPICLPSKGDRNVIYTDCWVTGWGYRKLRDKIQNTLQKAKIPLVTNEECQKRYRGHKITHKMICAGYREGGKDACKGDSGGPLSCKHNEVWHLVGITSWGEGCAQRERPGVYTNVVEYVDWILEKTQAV
Sequence of FXIa (P03951 19-387 partner limits assumed): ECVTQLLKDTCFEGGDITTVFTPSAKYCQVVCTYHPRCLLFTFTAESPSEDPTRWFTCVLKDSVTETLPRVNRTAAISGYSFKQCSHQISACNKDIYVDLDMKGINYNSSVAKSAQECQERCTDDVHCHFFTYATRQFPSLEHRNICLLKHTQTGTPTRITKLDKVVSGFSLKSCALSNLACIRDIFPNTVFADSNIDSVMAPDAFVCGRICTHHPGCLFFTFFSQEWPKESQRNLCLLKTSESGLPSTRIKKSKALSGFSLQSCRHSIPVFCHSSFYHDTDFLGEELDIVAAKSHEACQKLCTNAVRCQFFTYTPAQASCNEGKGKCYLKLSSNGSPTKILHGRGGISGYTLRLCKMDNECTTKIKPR
T2 sequence (P00747 581-810 limits assumed, species assumed): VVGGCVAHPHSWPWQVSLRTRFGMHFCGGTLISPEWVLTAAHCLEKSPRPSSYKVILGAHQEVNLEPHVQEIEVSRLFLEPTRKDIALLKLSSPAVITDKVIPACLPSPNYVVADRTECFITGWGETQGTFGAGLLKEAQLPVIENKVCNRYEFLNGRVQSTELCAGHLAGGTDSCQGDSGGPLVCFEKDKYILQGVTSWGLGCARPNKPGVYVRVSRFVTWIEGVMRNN
T2 sequence (P00747 97-580 partner limits assumed, species assumed): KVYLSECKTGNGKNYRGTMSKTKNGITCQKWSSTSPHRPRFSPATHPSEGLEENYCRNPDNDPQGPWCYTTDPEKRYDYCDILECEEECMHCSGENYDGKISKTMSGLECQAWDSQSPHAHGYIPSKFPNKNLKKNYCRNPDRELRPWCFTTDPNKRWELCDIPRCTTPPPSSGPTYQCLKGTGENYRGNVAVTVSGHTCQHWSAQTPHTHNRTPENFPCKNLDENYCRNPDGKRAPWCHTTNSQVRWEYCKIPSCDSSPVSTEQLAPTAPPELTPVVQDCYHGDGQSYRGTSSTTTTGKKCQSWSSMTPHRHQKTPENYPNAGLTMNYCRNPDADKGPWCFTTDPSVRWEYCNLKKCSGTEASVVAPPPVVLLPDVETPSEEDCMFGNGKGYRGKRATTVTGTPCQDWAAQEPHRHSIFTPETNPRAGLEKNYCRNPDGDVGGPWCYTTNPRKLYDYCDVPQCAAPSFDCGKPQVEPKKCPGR
Sequence of FXa (P00742 235-488 limits assumed): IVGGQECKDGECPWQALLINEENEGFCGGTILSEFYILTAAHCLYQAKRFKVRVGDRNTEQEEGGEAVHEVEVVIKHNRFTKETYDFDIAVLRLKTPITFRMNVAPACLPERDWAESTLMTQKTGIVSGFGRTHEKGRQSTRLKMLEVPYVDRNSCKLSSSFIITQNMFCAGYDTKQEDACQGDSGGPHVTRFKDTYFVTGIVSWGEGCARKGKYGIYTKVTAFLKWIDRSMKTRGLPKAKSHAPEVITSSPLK
Sequence of FXa (P00742 41-179 partner limits assumed): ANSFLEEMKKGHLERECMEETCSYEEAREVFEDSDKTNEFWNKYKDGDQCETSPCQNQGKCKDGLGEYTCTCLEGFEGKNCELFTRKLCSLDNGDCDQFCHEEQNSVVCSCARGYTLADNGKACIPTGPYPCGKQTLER

Molecule | Ki (FXIIa) | Ki (FXa) | Ki (Plasmin) | Ki (Thrombin) | Ki (FXIa) | Ki [2, 4] | Ki [2, 5] | further results
N=C(N)c1ccc(CNC(=O)c2cnn(Cc3ccccc3)c2)cc1 [ASP-440, 1-Benzyl-1H-pyrazole-4-carboxylic acid 4-carbamimidoyl-benzylamide] | > 10 µM | > 10 µM | > 10 µM | > 10 µM | > 10 µM | 0.31 µM | 0.09 µM | prolongs time to coagulation ([1]; compound 10 μM): 36%
Cc1cc(C(=O)NCc2ccc(C(=N)N)cc2)c(C)n1Cc1ccncc1 [ASP-465, 2,5-Dimethyl-1-pyridin-4-ylmethyl-1H-pyrrole-3-carboxylic acid 4-carbamimidoyl-benzylamide] | > 10 µM | > 10 µM | > 10 µM | > 10 µM | > 10 µM | 0.08 µM | 0.03 µM | block of the plasmin-induced shortening of time to coagulation attributable to PK ([1]; 10 μM): almost completely blocks; prolongs time to coagulation ([1]; compound 3.3 or 10 μM): 36-75%; potency towards inhibiting plasmin-activated coagulation relative to ASP-440 ([1]; same prolongation at 3.3 μM as ASP-440 at 10 μM): 3 fold; potency (Ki) towards PK relative to ASP-440 ([2]; ratio of Ki values): 3 fold
NC(N)=NCCC[C@@H](N)C(=O)N[C@@H](CCCN=C(N)N)C(=O)N1CCC[C@H]1C(=O)N1C[C@H](O)C[C@H]1C(=O)NCC(=O)N[C@@H](Cc1cccs1)C(=O)N[C@@H](CO)C(=O)N1Cc2ccccc2C[C@@H]1C(=O)N1[C@H](C(=O)N[C@@H](CCCN=C(N)N)C(=O)O)C[C@@H]2CCCC[C@@H]21 [Icatibant] |  |  |  |  |  |  |  | treating HAE (patients with HAE): effective
Cl.NCC1CCC(C(=O)N[C@@H](Cc2ccccc2)C(=O)Nc2ccc(CC(=O)O)cc2)CC1 (stereo partly drawn) [PKSI-527] |  |  |  |  |  |  |  | joint swelling (rat models of arthritis): reduce
B1 |  |  |  |  |  |  |  | infarct size (mouse model of MCAO): reduced; clinical outcome in sepsis patients (sepsis patients): Clinical improvement; vascular permeability in multiple organs and lesions [3]: reduce
